Laboratory results taken from patent US10196386B2, “Compounds having muscarinic receptor antagonist and beta2 adrenergic receptor agonist activity” (priority 2016, dated 2019).

What was measured:
Human M3 receptor = molecular target: T1, Human M3 receptor (Homo sapiens, UniProt P20309); assay: biochemical; assay type: binding; details: read-out: M3 Range
T1 construct: purchased Perkin Elmer

Human β2 adrenoceptor = molecular target: T2, Human β2 adrenoceptor (Homo sapiens, UniProt P07550); assay: β2 adrenoceptor radioligand binding assay
T2 construct: purchased Perkin Elmer
Method: β2 Adrenoceptor Radioligand Binding Assay
Human β2 adrenoceptor membranes (7.5 ug/well) from Perkin Elmer were incubated with 0.3 nM 125-I Cyanopindolol with or without test compounds, or a saturating concentration of s-propranolol (2 μM) for the determination of non-specific binding. The assay was carried out in 96-well polypropylene plates in a volume of 200 ul. The assay buffer used was 25 mM HEPES, 0.5% BSA (w/v), 1 mM EDTA, 0.02% ascorbic acid (v/v), (pH 7.4). The final assay concentration of DMSO was 0.5% (v/v). The plates were sealed and incubated for 1 h at room temperature on an orbital shaker (slow speed). Membranes were harvested onto 96-well unifilter GF/C filter plates pre-treated with 0.5% polyethyleneimine (v/v), using a filter manifold, washed six times with 200 ul of wash buffer containing 10 mM HEPES and 500 mM NaCl. The plates were dried before addition of 50 μl of microscint-0, sealed then read in a Trilux Microbeta scintillation counter. IC50 values are determined from competition curves using a non-linear curve fitting program. Ki values were calculated from IC50 values by the Cheng and Prusoff equation.

T1 sequence (P20309 whole entry): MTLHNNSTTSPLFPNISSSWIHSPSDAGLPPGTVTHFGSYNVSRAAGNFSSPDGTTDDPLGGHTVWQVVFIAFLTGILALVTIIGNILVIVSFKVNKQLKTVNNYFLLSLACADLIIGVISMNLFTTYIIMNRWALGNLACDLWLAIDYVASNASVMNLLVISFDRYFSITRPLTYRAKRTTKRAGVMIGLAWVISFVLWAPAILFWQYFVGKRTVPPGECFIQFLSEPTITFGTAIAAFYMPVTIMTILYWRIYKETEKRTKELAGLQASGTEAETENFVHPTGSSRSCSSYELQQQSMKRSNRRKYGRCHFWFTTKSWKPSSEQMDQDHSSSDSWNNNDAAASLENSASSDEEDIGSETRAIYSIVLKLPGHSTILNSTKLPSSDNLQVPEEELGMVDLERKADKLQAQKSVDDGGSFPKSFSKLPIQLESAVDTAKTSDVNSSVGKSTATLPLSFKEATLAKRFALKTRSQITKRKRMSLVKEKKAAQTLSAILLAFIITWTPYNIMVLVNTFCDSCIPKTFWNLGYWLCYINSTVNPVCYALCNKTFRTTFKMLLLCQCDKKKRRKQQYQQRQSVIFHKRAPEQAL
T2 sequence (P07550 whole entry): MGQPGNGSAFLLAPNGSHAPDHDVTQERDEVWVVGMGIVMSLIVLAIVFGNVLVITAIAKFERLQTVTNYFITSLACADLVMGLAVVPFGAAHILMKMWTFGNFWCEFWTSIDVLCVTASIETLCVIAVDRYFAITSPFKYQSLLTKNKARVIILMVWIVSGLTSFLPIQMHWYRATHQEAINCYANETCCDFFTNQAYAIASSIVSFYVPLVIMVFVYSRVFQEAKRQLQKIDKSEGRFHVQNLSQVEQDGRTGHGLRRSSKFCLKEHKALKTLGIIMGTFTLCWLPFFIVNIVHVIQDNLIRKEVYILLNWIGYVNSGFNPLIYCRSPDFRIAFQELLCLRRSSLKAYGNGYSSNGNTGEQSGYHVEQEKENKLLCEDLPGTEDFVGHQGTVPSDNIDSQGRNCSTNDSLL

Row | Compound | IC50 (Human M3 receptor) | IC50 (Human β2 adrenoceptor)
1 | O=C(NCc1ccc(-c2cccc([C@](O)(C(=O)OCC3CCN(Cc4ccccc4)CC3)c3ccccc3)c2)s1)c1cc(F)c(CNC[C@H](O)c2ccc(O)c3[nH]c(=O)ccc23)cc1F [Compound 1U, (1-Benzylpiperidin-4-yl)methyl (S)-2-(3-(5-((2,5-difluoro-4-((((R)-2-hydroxy-2-(8-hydroxy-2-oxo-1,2-dihydroquinolin-5-yl)ethyl)amino)methyl)-benzamido)methyl)thiophen-2-yl)phenyl)-2-hydroxy-2-phenylacetate] | 0.3 to 3 nM | < 0.3 nM
2 | O=C(NCc1ccc(-c2cccc([C@](O)(C(=O)OCC3CCN(Cc4ccccc4)CC3)c3ccccc3)c2)s1)c1ccc(CNC[C@H](O)c2ccc(O)c3[nH]c(=O)ccc23)c(F)c1F [Compound 1V, (1-Benzylpiperidin-4-yl)methyl (S)-2-(3-(5-((2,3-difluoro-4-((((R)-2-hydroxy-2-(8-hydroxy-2-oxo-1,2-dihydroquinolin-5-yl)ethyl)amino)methyl)-benzamido)methyl)thiophen-2-yl)phenyl)-2-hydroxy-2-phenylacetate] | 0.3 to 3 nM | < 0.3 nM
3 | O=C(NCc1ccc(-c2cccc([C@](O)(C(=O)OCC3CCN(Cc4ccccc4)CC3)c3ccccc3)c2)s1)c1c(F)cc(CNC[C@H](O)c2ccc(O)c3[nH]c(=O)ccc23)cc1Cl [Compound 1W, (1-Benzylpiperidin-4-yl)methyl (S)-2-(3-(5-((2-chloro-6-fluoro-4-((((R)-2-hydroxy-2-(8-hydroxy-2-oxo-1,2-dihydroquinolin-5-yl)ethyl)amino)methyl)-benzamido)methyl)thiophen-2-yl)phenyl)-2-hydroxy-2-phenylacetate] | 0.3 to 3 nM | < 0.3 nM
4 | COc1cc(CNC[C@H](O)c2ccc(O)c3[nH]c(=O)ccc23)cc(F)c1C(=O)NCc1ccc(-c2cccc([C@](O)(C(=O)OCC3CCN(Cc4ccccc4)CC3)c3ccccc3)c2)s1 [Compound 1X, (1-Benzylpiperidin-4-yl)methyl (S)-2-(3-(5-((2-fluoro-4-((((R)-2-hydroxy-2-(8-hydroxy-2-oxo-1,2-dihydroquinolin-5-yl)ethyl)amino)methyl)-6-methoxybenzamido)methyl)thiophen-2-yl)phenyl)-2-hydroxy-2-phenylacetate] | 0.3 to 3 nM | < 0.3 nM
5 | COc1ccc(CN2CCC(COC(=O)[C@](O)(c3ccccc3)c3cccc(-c4ccc(CNC(=O)c5ccc(CNC[C@H](O)c6ccc(O)c7[nH]c(=O)ccc67)cc5)s4)c3)CC2)cc1 [Compound 2A, (1-(4-Methoxybenzyl)piperidin-4-yl)methyl (S)-2-hydroxy-2-(3-(5-((4-((((R)-2-hydroxy-2-(8-hydroxy-2-oxo-1,2-dihydroquinolin-5-yl)ethyl)amino)-methyl)benzamido)methyl)thiophen-2-yl)phenyl)-2-phenylacetate] | 0.3 to 3 nM | < 0.3 nM
6 | CN1CCC(COC(=O)[C@](O)(c2ccccc2)c2cccc(-c3ccc(CNC(=O)c4ccc(CNC[C@H](O)c5ccc(O)c6[nH]c(=O)ccc56)cc4)s3)c2)CC1 [Compound 2B, (1-Methylpiperidin-4-yl)methyl (S)-2-hydroxy-2-(3-(5-((4-((((R)-2-hydroxy-2-(8-hydroxy-2-oxo-1,2-dihydroquinolin-5-yl)ethyl)amino)methyl)-benzamido)methyl)thiophen-2-yl)phenyl)-2-phenylacetate] | 0.3 to 3 nM | < 0.3 nM
7 | O=C(NCc1ccc(-c2cccc([C@](O)(C(=O)OC[C@@H]3[C@H]4CN(Cc5ccccc5)C[C@@H]34)c3ccccc3)c2)s1)c1ccc(CNC[C@H](O)c2ccc(O)c3[nH]c(=O)ccc23)cc1 [Compound 2D, ((1R,5S,6r)-3-Benzyl-3-azabicyclo[3.1.0]hexan-6-yl)methyl (S)-2-hydroxy-2-(3-(5-((4-((((R)-2-hydroxy-2-(8-hydroxy-2-oxo-1,2-dihydroquinolin-5-yl)ethyl)amino)methyl)benzamido)methyl)thiophen-2-yl)phenyl)-2-phenylacetate] | 0.3 to 3 nM | 0.3 to 3 nM
8 | COc1cccc(CN2CCC(COC(=O)[C@](O)(c3ccccc3)c3cccc(-c4ccc(CNC(=O)c5ccc(CNC[C@H](O)c6ccc(O)c7[nH]c(=O)ccc67)cc5)s4)c3)CC2)c1 [Compound 2E, (1-(3-Methoxybenzyl)piperidin-4-yl)methyl (S)-2-hydroxy-2-(3-(5-((4-((((R)-2-hydroxy-2-(8-hydroxy-2-oxo-1,2-dihydroquinolin-5-yl)ethyl)amino)-methyl)benzamido)methyl)thiophen-2-yl)phenyl)-2-phenylacetate] | > 3 nM | 0.3 to 3 nM
9 | C[C@@H](OC(=O)[C@](O)(c1ccccc1)c1cccc(-c2ccc(CNC(=O)c3ccc(CNC[C@H](O)c4ccc(O)c5[nH]c(=O)ccc45)cc3)s2)c1)C1CCN(Cc2ccccc2)CC1 [Compound 2G, (R)-1-(1-Benzylpiperidin-4-yl)ethyl (S)-2-hydroxy-2-(3-(5-((4-((((R)-2-hydroxy-2-(8-hydroxy-2-oxo-1,2-dihydroquinolin-5-yl)ethyl)amino)-methyl)benzamido)methyl)thiophen-2-yl)phenyl)-2-phenylacetate] | 0.3 to 3 nM | < 0.3 nM
10 | O=C(NCc1ccc(-c2cccc([C@](O)(C(=O)OC3CCC4(CC3)CCN(Cc3ccccc3)CC4)c3ccccc3)c2)s1)c1ccc(CNC[C@H](O)c2ccc(O)c3[nH]c(=O)ccc23)cc1 [Compound 2H, 3-Benzyl-3-azaspiro[5.5]undecan-9-yl (S)-2-hydroxy-2-(3-(5-((4-((((R)-2-hydroxy-2-(8-hydroxy-2-oxo-1,2-dihydroquinolin-5-yl)ethyl)amino)-methyl)benzamido)methyl)thiophen-2-yl)phenyl)-2-phenylacetate] | > 3 nM | < 0.3 nM
11 | O=C(c1ccc(CCNC[C@H](O)c2ccc(O)c3[nH]c(=O)ccc23)cc1)N1CC=C(c2cccc([C@](O)(C(=O)OCC3CCN(Cc4ccccc4)CC3)c3ccccc3)c2)CC1 [Compound 3, (1-Benzylpiperidin-4-yl)methyl (S)-2-hydroxy-2-(3-(1-(4-(2-(((R)-2-hydroxy-2-(8-hydroxy-2-oxo-1,2-dihydroquinolin-5-yl)ethyl)amino)ethyl)benzoyl)-1,2,3,6-tetrahydropyridin-4-yl)phenyl)-2-phenylacetate] | < 0.3 nM | < 0.3 nM
12 | O=C(NCc1ccc(-c2cccc([C@](O)(C(=O)OCC3CCN(Cc4ccccc4)CC3)c3ccccc3)c2)o1)c1ccc(CNC[C@H](O)c2ccc(O)c3[nH]c(=O)ccc23)cc1 [Compound 3A, (1-Benzylpiperidin-4-yl)methyl (S)-2-hydroxy-2-(3-(5-((4-((((R)-2-hydroxy-2-(8-hydroxy-2-oxo-1,2-dihydroquinolin-5-yl)ethyl)amino)methyl)-benzamido)methyl)furan-2-yl)phenyl)-2-phenylacetate] | 0.3 to 3 nM | 0.3 to 3 nM
13 | O=C(c1ccc(CNC[C@H](O)c2ccc(O)c3[nH]c(=O)ccc23)cc1)N1CC=C(c2cccc([C@](O)(C(=O)OCC3CCN(Cc4ccccc4)CC3)c3ccccc3)c2)CC1 [Compound 3B, (1-Benzylpiperidin-4-yl)methyl (S)-2-hydroxy-2-(3-(1-(4-((((R)-2-hydroxy-2-(8-hydroxy-2-oxo-1,2-dihydroquinolin-5-yl)ethyl)amino)methyl)benzoyl)-1,2,3,6-tetrahydropyridin-4-yl)phenyl)-2-phenylacetate] | 0.3 to 3 nM | < 0.3 nM
14 | COc1cc(C(=O)N2CC=C(c3cccc([C@](O)(C(=O)OCC4CCN(Cc5ccccc5)CC4)c4ccccc4)c3)CC2)ccc1CNC[C@H](O)c1ccc(O)c2[nH]c(=O)ccc12 [Compound 3C, (1-Benzylpiperidin-4-yl)methyl (S)-2-hydroxy-2-(3-(1-(4-((((R)-2-hydroxy-2-(8-hydroxy-2-oxo-1,2-dihydroquinolin-5-yl)ethyl)amino)methyl)-3-methoxybenzoyl)-1,2,3,6-tetrahydropyridin-4-yl)phenyl)-2-phenylacetate] | < 0.3 nM | < 0.3 nM
15 | COc1c(CNC[C@H](O)c2ccc(O)c3[nH]c(=O)ccc23)ccc(C(=O)N2CC=C(c3cccc([C@](O)(C(=O)OCC4CCN(Cc5ccccc5)CC4)c4ccccc4)c3)CC2)c1F [Compound 3D, (1-Benzylpiperidin-4-yl)methyl (S)-2-(3-(1-(2-fluoro-4-((((R)-2-hydroxy-2-(8-hydroxy-2-oxo-1,2-dihydroquinolin-5-yl)ethyl)amino)methyl)-3-methoxybenzoyl)-1,2,3,6-tetrahydropyridin-4-yl)phenyl)-2-hydroxy-2-phenylacetate] | 0.3 to 3 nM | 0.3 to 3 nM
16 | COc1cc(CNC[C@H](O)c2ccc(O)c3[nH]c(=O)ccc23)ccc1C(=O)N1CC=C(c2cccc([C@](O)(C(=O)OCC3CCN(Cc4ccccc4)CC3)c3ccccc3)c2)CC1 [Compound 3E, (1-Benzylpiperidin-4-yl)methyl (S)-2-hydroxy-2-(3-(1-(4-((((R)-2-hydroxy-2-(8-hydroxy-2-oxo-1,2-dihydroquinolin-5-yl)ethyl)amino)methyl)-2-methoxybenzoyl)-1,2,3,6-tetrahydropyridin-4-yl)phenyl)-2-phenylacetate] | < 0.3 nM | < 0.3 nM
